# Source: ChEMBL document CHEMBL4007485, “Examining the structure-activity relationship of benzopyran-based inhibitors of the hypoxia inducible factor-1 pathway” (Bioorg Med Chem Lett, 2017)
# Test system: LN-229
# Experiment: Antitumor activity against human LN229 cells xenografted in nude mouse assessed as tumor growth inhibition at 60 mg/kg administered for 5 days in a week for 10 to 12 weeks relative to control
# Type: functional
# Conditions: not given
row,Compound,fold change (FC)
1,COc1ccc(S(=O)(=O)N(Cc2ccc3c(c2)C=CC(C)(C)O3)c2ccccc2)cc1OC,6

# Test system: not listed separately
# Experiment: Inhibition of HIF-1 pathway in human LN229 cells harboring HRE-AP by alkaline phosphatase reporter gene assay
# Type: cell-based
# Conditions: LN-229
row,Compound,IC50 [µM]
1,COc1ccc(S(=O)(=O)N(Cc2ccc3c(c2)C=CC(C)(C)O3)c2ccccc2)cc1OC,0.6

# Test system: not listed separately
# Experiment: Inhibition of HIF-1 pathway in human LN229 cells harboring HRE-AP assessed sa reduction in VEGF transcription pretreated for 1 hr under normoxic condition followed by 24 hrs incubation under hypoxic condition by HRE-[…] reporter gene assay
# Type: cell-based
# Conditions: LN-229
row,Compound,IC50 [µM]
1,COc1ccc(CN(C2CCC2)S(=O)(=O)c2ccc(OC)c(OC)c2)c(OC)c1,> 5
2,COc1ccc(S(=O)(=O)N(Cc2ccc(CN3CCOCC3)cc2)C2CCC2)cc1OC,1
3,COc1ccc(CCN(Cc2ccc3c(n2)C=CC(C)(C)O3)S(=O)(=O)c2ccc(OC)c(OC)c2)cc1OC,> 5
4,COc1ccc(S(=O)(=O)N(Cc2cccc3c2OC(C)(C)C=C3)c2ccccc2)cc1OC,1.8
5,COc1ccc(S(=O)(=O)N(Cc2ccc3c(n2)C=CC(C)(C)O3)C2CCC2)cc1OC,0.28
6,COc1ccc(S(=O)(=O)N(Cc2ccc3c(c2)OCO3)C2CCC2)cc1OC,1.3
7,COc1ccc(S(=O)(=O)N(Cc2ccc3c(c2)CCC(C)(C)O3)c2ccccc2)cc1,3.2
8,COc1ccc(S(=O)(=O)N(Cc2ccc3c(c2)C=CC(C)(C)O3)C2CCCC2)c(OC)c1,1.5
9,CC1(C)C=Cc2cc(CN(c3ccccc3)S(=O)(=O)c3ccc(F)c(F)c3)ccc2O1,> 5
10,COc1ccc(S(=O)(=O)N(Cc2ccc([N+](=O)[O-])cc2)C2CCC2)cc1OC,> 5
11,COc1ccc(S(=O)(=O)N(Cc2ccc3nonc3c2)c2ccccc2)cc1OC,> 5
12,CCOc1ccc(S(=O)(=O)N(Cc2ccc3c(c2)C=CC(C)(C)O3)C2CCC2)cc1,4.4
13,COc1ccc(S(=O)(=O)N(Cc2ccc3c(c2)CCC(C)(C)O3)c2ccccc2)cc1OC,0.98
14,COc1ccc(S(=O)(=O)N(Cc2ccc3c(c2)CCC(C)(C)O3)CC2COC2)cc1OC,> 5
15,COc1ccc(S(=O)(=O)N(Cc2ccc3c(c2)CCC(C)(C)O3)C2CCC2)cc1OC,0.39
16,CC1(C)C=Cc2cc(CN(C3CCCC3)S(=O)(=O)c3ccc(CBr)cc3)ccc2O1,3
17,COc1ccc(S(=O)(=O)N(Cc2ccc3c(n2)CCC(C)(C)O3)C2CCC2)cc1OC,0.25
18,CC1(C)C=Cc2nc(CN(C3CCC3)S(=O)(=O)c3ccc(OC(F)(F)F)cc3)ccc2O1,4
19,COc1ccc(S(=O)(=O)N(Cc2ccc3c(c2)C=CC(C)(C)O3)c2ccccc2)cc1OC,0.59
20,COc1ccc(S(=O)(=O)N(Cc2ccc3c(c2)C=CC(C)(C)O3)C2CCCC2)cc1OC,0.5
21,CC1(C)C=Cc2cc(CN(C3CCC3)S(=O)(=O)c3ccc(Br)cc3)ccc2O1,> 5

row,Compound,IC50 [µM]
1,COc1ccc(S(=O)(=O)N(Cc2ccc3c(n2)CCC(C)(C)O3)C2CCC2)cc1,1.2
2,COc1ccc(S(=O)(=O)N(Cc2ccc3c(n2)C=CC(C)(C)O3)C2CCC2)cc1,1.8
3,COc1ccc(S(=O)(=O)N(Cc2ccccc2)C2CCC2)cc1OC,> 5
4,COc1ccc(S(=O)(=O)N(Cc2ccc3c(c2)OCO3)c2ccccc2)cc1OC,> 5
5,CC1(C)C=Cc2cc(CN(C3CCC3)S(=O)(=O)c3ccc(F)c(F)c3)ccc2O1,4.6
6,Cc1noc(C)c1S(=O)(=O)N(Cc1ccc2c(c1)C=CC(C)(C)O2)C1CCC1,> 5
7,CCOc1ccc(S(=O)(=O)N(Cc2ccc3c(c2)C=CC(C)(C)O3)C2CCCC2)cc1,> 5
8,COc1ccc(S(=O)(=O)N(Cc2cc3c(cc2C)OC(C)(C)C=C3)c2ccccc2)cc1OC,3.3
9,COc1ccc(S(=O)(=O)N(Cc2ccc3c(c2)C=CC(C)(C)O3)C2CCC2)cc1OC,0.75
10,COc1ccc(S(=O)(=O)N(Cc2ccc3c(c2)CCO3)C2CCC2)cc1OC,3.5
11,CC1(C)C=Cc2cc(CN(c3ccccc3)S(=O)(=O)c3ccc(OC(F)(F)F)cc3)ccc2O1,> 5
12,CC1(C)C=Cc2cc(CN(c3ccccc3)S(=O)(=O)c3ccc(C#N)cc3)ccc2O1,> 5
13,COc1cccc(S(=O)(=O)N(Cc2ccc3c(c2)C=CC(C)(C)O3)c2ccccc2)c1,1
14,CC1(C)C=Cc2cc(CN(C3CCC3)S(=O)(=O)c3ccc(OC(F)(F)F)cc3)ccc2O1,> 5
15,CC1(C)C=Cc2nc(CN(C3CCC3)S(=O)(=O)c3ccc(CBr)cc3)ccc2O1,2.5
16,COc1ccc(S(=O)(=O)N(Cc2ccccc2[N+](=O)[O-])C2CCC2)cc1OC,> 5
17,COc1ccc(S(=O)(=O)N(Cc2cc3c(cc2Br)OC(C)(C)C=C3)c2ccccc2)cc1OC,3.1
18,COc1ccc(S(=O)(=O)N(Cc2cc(C)c3c(c2)C=CC(C)(C)O3)c2ccccc2)cc1OC,3.2
19,COc1ccc(CN(C2CCC2)S(=O)(=O)c2ccc(OC)c(OC)c2)cc1,3.9
20,COc1ccc(S(=O)(=O)N(Cc2ccc3c(c2)C=CC(C)(C)O3)CC2COC2)cc1OC,4
21,COc1ccc(S(=O)(=O)N(Cc2ccc[nH]2)C2CCC2)cc1OC,> 5
